Measurements published in PMC5865651, “Novel inhibitor candidates of TRPV2 prevent damage of dystrophic myocytes and ameliorate against dilated cardiomyopathy in a hamster model” (Oncotarget, 2018).

Legend:
human TRPV2 (hTRPV2) [1] = molecular target: T1, human TRPV2 (hTRPV2) (Homo sapiens, UniProt Q9Y5S1); details: cited from earlier work
T1 sequence (Q9Y5S1 1-764): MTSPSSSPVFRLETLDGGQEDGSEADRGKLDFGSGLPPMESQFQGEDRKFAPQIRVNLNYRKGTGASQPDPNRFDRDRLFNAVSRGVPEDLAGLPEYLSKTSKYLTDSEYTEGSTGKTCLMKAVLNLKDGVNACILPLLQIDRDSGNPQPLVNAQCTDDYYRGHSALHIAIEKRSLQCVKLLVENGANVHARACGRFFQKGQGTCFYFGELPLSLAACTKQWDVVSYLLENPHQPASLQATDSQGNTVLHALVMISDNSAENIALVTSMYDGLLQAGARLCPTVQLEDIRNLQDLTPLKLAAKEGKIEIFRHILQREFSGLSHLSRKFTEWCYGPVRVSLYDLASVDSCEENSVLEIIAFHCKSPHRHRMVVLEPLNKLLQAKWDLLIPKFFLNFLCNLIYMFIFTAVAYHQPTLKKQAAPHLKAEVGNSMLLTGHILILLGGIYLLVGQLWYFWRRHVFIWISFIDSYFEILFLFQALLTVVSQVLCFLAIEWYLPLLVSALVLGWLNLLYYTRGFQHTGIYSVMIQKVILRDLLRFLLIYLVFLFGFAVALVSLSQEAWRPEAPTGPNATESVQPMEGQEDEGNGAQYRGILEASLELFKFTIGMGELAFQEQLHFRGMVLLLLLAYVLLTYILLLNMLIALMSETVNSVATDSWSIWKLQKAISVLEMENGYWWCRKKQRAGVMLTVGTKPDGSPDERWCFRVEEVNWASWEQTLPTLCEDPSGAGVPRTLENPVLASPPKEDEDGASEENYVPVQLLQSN

J2N-k myocytes = assay: Stretch-induced CK release from J2N-k myocytes; assay type: cell-based, hamster; details: 30 μM, 30 min pretreatment, cyclic stretch 20% elongation 1 h
Procedure: Creatine phosphokinase (CK) activity in the medium was determined using an in vitro colorimetric assay kit (CK Test Kit; Wako Pure Chemical Industries, Ltd., Osaka, Japan) according to the manufacturer's protocol The cTN-I level in the serum was measured, while quantitative immunoblotting and immunocytochemistry were performed as previously described. Protein concentration was measured using the bicinchoninic acid assay (Pierce Chemical Co., Rockford, IL, USA) with bovine serum albumin as the standard. All histochemical and physiological analyses were performed by investigators blinded to the drug treatments. Unless otherwise stated, results are presented as the mean ± SD of at least 5 determinations. The unpaired Student's t-test and one-way ANOVA followed by Dunnett's test were used to analyse the data. Values of P < 0.05 (indicated as asterisks in the figures) were considered statistically significant. All cellular measurements were repeated at least 5 times. Representative data are shown.

human TRPV2 (hTRPV2) [2] = molecular target: T1, human TRPV2 (hTRPV2); assay: CaCl2 (5 mM)-induced increase in [Ca2+]i in CHO cells expressing hTRPV2; assay type: cell-based; parameters: expressed in transfected cells; host or cells: CHO cells; details: compound 15 μM
Procedure: Figure 4 Effects of inhibitor compounds on the Ca^2+ response of cells expressing hTRPV1, hTRPV2, or hTRPC1 (A) Effect of compounds on CaCl2 (5 mM)-induced peak fluorescence ratio in non-transfected (nt) or hTRPV2-transfected CHO cells. The extracellular Ca^2+-dependent increase in the ratio of fura-2 fluorescence intensity at 340/380 nm (ΔR, 2 min after addition of chemicals) was plotted as ΔR/R0 after normalising to the initial fluorescence ratio (R0). […] Solid bar, no inhibitor. (B) Effect of compounds on 2-APB (1 mM)/high extracellular CaCl2-induced peak fluorescence ratio in nt or hTRPV1-transfected HEK293 cells. […] (C) Effect of compounds on store-operated Ca^2+ entry in nt or hTRPC1-transfected HEK293 cells. Cells were treated with the endoplasmic reticulum Ca^2+ pump inhibitor thapsigargin and exposed to CaCl2 and the indicated compounds. ΔR was measured 2 min after the addition of CaCl2. […]
[Ca^2+]i was measured by a ratiometric fluorescence method as previously described. […] Fura-2-AM fluorescence was measured using an Aquacosmos fluorescence image processor (Hamamatsu Photonics, Hamamatsu, Japan). The time-course data are presented as the ratio of fluorescence at an excitation wavelength of 340 nm to that at 380 nm. The increase in the fluorescence ratio induced by the TRPV2 agonist 2-APB or high extracellular Ca^2+ (ΔR) was normalized to the initial ratio (R0) before stimulation. […]

[3] = system: dystrophic myocytes from J2N-k hamsters; assay: Ca2+ response in cultured myocytes from dystrophic J2N-k hamsters; assay type: cell-based, hamster; details: compound 15 μM

NCCOB(c1ccccc1)c1ccccc1 [2-APB, 2-aminoethoxydiphenylborate]
response of hTRPV2 to 2-APB (human TRPV2 (hTRPV2) [1]): unresponsive

COc1cc(/C=C(\C#N)C(=O)Nc2ccccc2C(=O)O)cc(Cl)c1OC [A3, 2-[(2E)-3-(3-Chloro-4,5-dimethoxyphenyl)-2-cyanoprop-2-enoylamino]benzoic acid]
reduction of stretch-induced CK release (J2N-k myocytes): up to 70% | effect on Ca2+ influx in response to CaCl2 exposure (human TRPV2 (hTRPV2) [2]): markedly inhibited

COc1cccc(OCCn2cc(/C=N/n3cnnc3)c3ccccc32)c1 [B6, 1-{2-[3-((1E)-2-(1,2,4-triazol-4-yl)-2-azavinyl)indolyl]ethoxy}-3-methoxybenzene]
effect on Ca2+ influx in response to CaCl2 exposure (human TRPV2 (hTRPV2) [2]): not

CCN1C=CC(=CC=C(C=Cc2cc[n+](CC)c3ccccc23)c2cc[n+](CC)c3ccccc23)c2ccccc21.[I-].[I-] [lumin, 4,4′-[3-[2-[1-ethyl-4(1H)-quinolinylidene]ethylidene]-1-propene-1,3-diyl]bis(1-ethylquinolinium) diiodide]
effect on high extracellular Ca2+ (5 mM)-induced increase in [Ca2+]i [3]: inhibited | effect on 2-APB-induced increase in [Ca2+]i ([3]; 2-APB 0.5 mM, CaCl2 5 mM, pH 6.5): inhibited
